{
  "source": "patent US20120190546A1",
  "about": "“HERBICIDAL COMPOSITION AND METHOD OF USE THEREOF” (SYNGENTA CROP PROTECTION LLC, priority 2007, published 2012)",
  "key": {"[1]": {"test_system": "white clover (Trifolium repens)", "experiment": "Glasshouse trial: control of white clover with mesotrione and oxadiazon applied post-emergence", "type": "in vivo", "design": "key to Synergy (actual vs expected), Plus Mesotrione at 100 g ai/ha / Synergy (actual vs expected), Plus Mesotrione at 150 g ai/ha: ‘n’indicates no synergy observed; *indicates synergy", "settings": "for Synergy (actual vs expected), Plus Mesotrione at 100 g ai/ha / Synergy (actual vs expected), Plus Mesotrione at 150 g ai/ha: Student-Newman-Keuls test; for Actual weed control, Plus Mesotrione at 100 g ai/ha / Actual weed control, Plus Mesotrione at 150 g ai/ha: X-77 0.1% v/v, evaluated 7 and 14 DAT (not said which)", "protocol": "(§1) In the following tests, herbicides were applied at reduced field rates because herbicide effects are magnified in a glasshouse environment. The rates tested were selected to give between about 50 and 70% control with herbicides applied alone, so that any synergistic effect could be readily detected when testing mixtures.\n(§2) A glasshouse trial was carried out. White clover seeds were sown into standard glasshouse potting mix (1:1 v/v Promix:Vero sand soil) contained in 10 cm square plastic pots. Treatments were replicated three times. Mesotrione (in the form Callisto® 480SE) was applied post-emergence to white clover (Trifolium repens) at either 100 g ai/ha or 150 g ai/ha with or without oxadiazon (in the form Ronstar®). When used, oxadiazon was applied at a rate of 210 g ai/ha or 420 g ai/ha. The adjuvant system was X-77 at 0.1% v/v in deionised water. 200 litres of herbicide/adjuvant system was used per hectare. General weed control was evaluated at 7 and 14 days after treatment (DAT). It is noted that all herbicides were applied at reduced field rates because herbicide effects are magnified in a glasshouse environment. Rates were chosen to give a 50 to 70% level of control with herbicides applied alone as this allows for detection of any synergistic effect when tank mixtures are used.\n(§3) The results were evaluated using the Colby formula. The expected result for (A+B) is (A+B)−(AxB/100) where A and B are the ‘observed’ results for A and B on their own."}, "white clover": {"test_system": "white clover", "experiment": "Glasshouse trial: control of white clover with mesotrione and oxadiazon applied pre-emergence", "type": "in vivo, Trifolium repens", "design": "key to Synergy (actual vs expected), Plus Mesotrione at 25 g ai/ha / Synergy (actual vs expected), Plus Mesotrione at 50 g ai/ha: ‘n’indicates no synergy observed; *indicates synergy", "protocol": "as §1, §2, §3\nA glasshouse trial was carried out as described in Example 1, except that the herbicidal composition was applied pre-emergence, and lower rates of mesotrione were used as indicated below."}, "[2]": {"settings": "oxadiazon 210 g ai/ha + mesotrione 100 g ai/ha"}, "[3]": {"settings": "oxadiazon 210 g ai/ha + mesotrione 150 g ai/ha"}, "[4]": {"settings": "oxadiazon 420 g ai/ha + mesotrione 100 g ai/ha"}, "[5]": {"settings": "oxadiazon 420 g ai/ha + mesotrione 150 g ai/ha"}, "[6]": {"settings": "oxadiazon 210 g ai/ha + mesotrione 25 g ai/ha"}, "[7]": {"settings": "oxadiazon 210 g ai/ha + mesotrione 50 g ai/ha"}, "[8]": {"settings": "oxadiazon 420 g ai/ha + mesotrione 25 g ai/ha"}, "[9]": {"settings": "oxadiazon 420 g ai/ha + mesotrione 50 g ai/ha"}},
  "data": [
    {"substance": "5-tert-butyl-3-(2,4-dichloro-5-isopropoxyphenyl)-1,3,4-oxadiazol-2(3M-one [Oxadiazon]", "values": [
      {"measurement": "Expected weed control (Colby formula), Plus Mesotrione at 100 g ai/ha", "setting": "[1]; [2]", "result": 48, "unit": "%"},
      {"measurement": "Synergy (actual vs expected), Plus Mesotrione at 100 g ai/ha", "setting": "[1]; [2]", "result": "n"},
      {"measurement": "Actual weed control, Plus Mesotrione at 100 g ai/ha", "setting": "[1]; [2]", "result": 48, "unit": "%"},
      {"measurement": "Expected weed control (Colby formula), Plus Mesotrione at 150 g ai/ha", "setting": "[1]; [3]", "result": 68, "unit": "%"},
      {"measurement": "Synergy (actual vs expected), Plus Mesotrione at 150 g ai/ha", "setting": "[1]; [3]", "result": "*"},
      {"measurement": "Actual weed control, Plus Mesotrione at 150 g ai/ha", "setting": "[1]; [3]", "result": 77, "unit": "%"},
      {"measurement": "Expected weed control (Colby formula), Plus Mesotrione at 100 g ai/ha", "setting": "[1]; [4]", "result": 49, "unit": "%"},
      {"measurement": "Synergy (actual vs expected), Plus Mesotrione at 100 g ai/ha", "setting": "[1]; [4]", "result": "*"},
      {"measurement": "Actual weed control, Plus Mesotrione at 100 g ai/ha", "setting": "[1]; [4]", "result": 75, "unit": "%"},
      {"measurement": "Expected weed control (Colby formula), Plus Mesotrione at 150 g ai/ha", "setting": "[1]; [5]", "result": 69, "unit": "%"},
      {"measurement": "Synergy (actual vs expected), Plus Mesotrione at 150 g ai/ha", "setting": "[1]; [5]", "result": "*"},
      {"measurement": "Actual weed control, Plus Mesotrione at 150 g ai/ha", "setting": "[1]; [5]", "result": 77, "unit": "%"},
      {"measurement": "Actual weed control, Plus Mesotrione at 25 g ai/ha", "setting": "white clover; [6]", "result": 100, "unit": "%"},
      {"measurement": "Expected weed control (Colby formula), Plus Mesotrione at 25 g ai/ha", "setting": "white clover; [6]", "result": 77, "unit": "%"},
      {"measurement": "Synergy (actual vs expected), Plus Mesotrione at 25 g ai/ha", "setting": "white clover; [6]", "result": "*"},
      {"measurement": "Actual weed control, Plus Mesotrione at 50 g ai/ha", "setting": "white clover; [7]", "result": 98, "unit": "%"},
      {"measurement": "Expected weed control (Colby formula), Plus Mesotrione at 50 g ai/ha", "setting": "white clover; [7]", "result": 83, "unit": "%"},
      {"measurement": "Synergy (actual vs expected), Plus Mesotrione at 50 g ai/ha", "setting": "white clover; [7]", "result": "*"},
      {"measurement": "Actual weed control, Plus Mesotrione at 25 g ai/ha", "setting": "white clover; [8]", "result": 97, "unit": "%"},
      {"measurement": "Expected weed control (Colby formula), Plus Mesotrione at 25 g ai/ha", "setting": "white clover; [8]", "result": 96, "unit": "%"},
      {"measurement": "Synergy (actual vs expected), Plus Mesotrione at 25 g ai/ha", "setting": "white clover; [8]", "result": "*"},
      {"measurement": "Actual weed control, Plus Mesotrione at 50 g ai/ha", "setting": "white clover; [9]", "result": 100, "unit": "%"},
      {"measurement": "Expected weed control (Colby formula), Plus Mesotrione at 50 g ai/ha", "setting": "white clover; [9]", "result": 97, "unit": "%"},
      {"measurement": "Synergy (actual vs expected), Plus Mesotrione at 50 g ai/ha", "setting": "white clover; [9]", "result": "*"}
    ]}
  ]
}
